pIC50, pKi: −log10 of the molar value.
What was measured:
[1] = Toxicity in telemetered Beagle dog assessed as change in blood pressure up to 25 mg/kg, po; type: organism-based, Canis lupus familiaris; conditions: in vivo
[2] = Cmax in Wistar rat at 10 ml/kg, po or 2 ml/kg, iv measured upto 24 hrs by LC-MS/MS analysis; type: ADME, organism-based; conditions: in vivo
[3] = Genotoxicity in Salmonella typhimurium TA98 in absence of metabolic activation; type: toxicity; conditions: salmonella enterica subsp. enterica serovar typhimurium
[4] = Protein binding in dog plasma assessed as unbound fraction at […] incubated for 6 hrs by LC-MS/MS analysis; type: ADME, cell-free, Canis lupus familiaris
[5] = AUC (0 to t) in Beagle dog at 3 mg/kg, po by LC-MS/MS analysis; type: ADME, organism-based, Canis lupus familiaris; conditions: in vivo
[6] = Protein binding in human plasma assessed as unbound fraction at […] incubated for 6 hrs by LC-MS/MS analysis; type: ADME, cell-free
Rattus norvegicus [7] = assay: Antidepressant activity in Wistar rat assessed as reduction in immobility at 1 mg/kg, po administrated for 3 days and measured for 5 mins by forced swim test relative to control; type: functional; set-up: scale not given: the % may be the effect or the level left
[8] = molecular target: Neuronal acetylcholine receptor; alpha3/beta4 (Homo sapiens, UniProt P30926+P32297); assay: Displacement of [3H]epibatidine from human alpha3beta4 nAChR expressed in IMR32 cell membrane by microbeta scintillation counting method; type: cell membranes, IMR-32
[9] = Toxicity in telemetered Beagle dog assessed as change in body temperature up to 25 mg/kg, po; type: organism-based, Canis lupus familiaris; conditions: in vivo
Bone marrow cell = assay: Genotoxicity in mouse bone marrow cells assessed as non clastogenic by micronucleus assay; type: toxicity, cell-based
Cytochrome P450 3A4 = Cytochrome P450 3A4 (Homo sapiens, UniProt P08684); assay: Inhibition of CYP3A4 in human liver microsomes using midazolam as substrate incubated for 2 min in presence of NADPH by LC-MS/MS analysis; type: ADME
[10] = molecular target: T1, Organic anion transporter 3 (Homo sapiens, UniProt Q8TCC7); assay: Inhibition of OAT3 (unknown origin)
T1 sequence (Q8TCC7 whole entry): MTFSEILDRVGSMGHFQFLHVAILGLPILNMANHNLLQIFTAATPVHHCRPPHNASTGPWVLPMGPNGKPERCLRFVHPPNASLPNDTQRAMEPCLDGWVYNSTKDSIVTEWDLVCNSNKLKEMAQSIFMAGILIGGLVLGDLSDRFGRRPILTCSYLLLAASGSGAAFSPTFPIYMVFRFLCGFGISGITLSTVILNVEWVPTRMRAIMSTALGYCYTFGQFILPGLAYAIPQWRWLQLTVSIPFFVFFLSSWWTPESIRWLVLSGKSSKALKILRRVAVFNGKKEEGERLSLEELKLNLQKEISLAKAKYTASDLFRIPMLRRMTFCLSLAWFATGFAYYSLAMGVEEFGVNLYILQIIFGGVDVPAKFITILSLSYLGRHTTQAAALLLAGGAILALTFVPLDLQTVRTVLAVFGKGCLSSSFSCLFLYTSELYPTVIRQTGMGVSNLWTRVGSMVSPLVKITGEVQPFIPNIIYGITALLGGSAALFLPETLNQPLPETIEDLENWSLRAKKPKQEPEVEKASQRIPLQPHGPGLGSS

Rattus norvegicus [11] = assay: Antidepressant activity in Wistar rat assessed as reduction in immobility at 10 mg/kg, po administrated for 3 days and measured for 5 mins by forced swim test relative to control; type: functional; set-up: scale not given: the % may be the effect or the level left
[12] = Oral bioavailability in Wistar rat at 10 ml/kg measured upto 24 hrs by LC-MS/MS analysis; type: ADME, organism-based; conditions: in vivo
[13] = molecular target: T2, Solute carrier organic anion transporter family member 1B1 (Homo sapiens, UniProt Q9Y6L6); assay: Inhibition of OATP1B1 (unknown origin)
T2 sequence (Q9Y6L6 whole entry): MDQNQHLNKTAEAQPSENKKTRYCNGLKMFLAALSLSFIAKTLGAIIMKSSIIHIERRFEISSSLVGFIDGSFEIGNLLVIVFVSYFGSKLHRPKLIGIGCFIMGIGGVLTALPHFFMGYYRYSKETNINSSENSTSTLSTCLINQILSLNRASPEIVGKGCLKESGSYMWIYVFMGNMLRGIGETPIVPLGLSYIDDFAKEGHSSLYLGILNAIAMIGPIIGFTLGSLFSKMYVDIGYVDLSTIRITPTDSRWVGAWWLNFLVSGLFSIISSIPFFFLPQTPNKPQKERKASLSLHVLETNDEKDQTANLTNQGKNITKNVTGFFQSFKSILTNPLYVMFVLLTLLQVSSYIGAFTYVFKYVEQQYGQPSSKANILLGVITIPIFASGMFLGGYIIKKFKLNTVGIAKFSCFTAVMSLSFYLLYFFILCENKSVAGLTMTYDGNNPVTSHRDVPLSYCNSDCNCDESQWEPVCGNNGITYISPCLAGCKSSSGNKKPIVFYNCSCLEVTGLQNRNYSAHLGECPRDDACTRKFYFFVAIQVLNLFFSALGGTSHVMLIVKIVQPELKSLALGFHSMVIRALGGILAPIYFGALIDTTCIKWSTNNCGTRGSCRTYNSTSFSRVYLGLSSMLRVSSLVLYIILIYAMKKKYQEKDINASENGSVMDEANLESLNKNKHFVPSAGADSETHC

[14] = molecular target: Neuronal acetylcholine receptor; alpha4/beta2 (Homo sapiens, UniProt P17787+P43681); assay: Antagonist activity at alpha4beta2 nAChR (unknown origin) expressed in HEK293 cells assessed as reduction in acetylcholine-induced currents at -80 mV holding potential by whole-cell patch clamp method; type: cell-based
[15] = Genotoxicity in Salmonella typhimurium TA100 in absence of metabolic activation; type: toxicity; conditions: salmonella enterica subsp. enterica serovar typhimurium
[16] = molecular target: T3, Solute carrier family 22 member 2 (Homo sapiens, UniProt O15244); assay: Inhibition of OCT2 (unknown origin)
T3 sequence (O15244 whole entry): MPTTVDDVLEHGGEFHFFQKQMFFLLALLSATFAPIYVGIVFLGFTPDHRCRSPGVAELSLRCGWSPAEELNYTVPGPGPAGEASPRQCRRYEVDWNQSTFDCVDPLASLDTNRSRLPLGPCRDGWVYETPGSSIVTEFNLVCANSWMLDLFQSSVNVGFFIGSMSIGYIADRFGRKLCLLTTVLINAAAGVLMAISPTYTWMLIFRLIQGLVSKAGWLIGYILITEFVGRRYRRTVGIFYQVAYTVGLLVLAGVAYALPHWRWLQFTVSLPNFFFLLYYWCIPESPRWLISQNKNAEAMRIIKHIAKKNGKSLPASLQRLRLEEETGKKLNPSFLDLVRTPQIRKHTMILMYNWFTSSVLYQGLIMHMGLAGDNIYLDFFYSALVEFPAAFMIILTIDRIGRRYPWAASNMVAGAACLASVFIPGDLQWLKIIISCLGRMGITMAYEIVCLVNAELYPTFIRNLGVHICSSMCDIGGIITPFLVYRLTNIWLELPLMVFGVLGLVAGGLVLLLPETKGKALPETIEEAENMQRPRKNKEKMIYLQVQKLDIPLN

[17] = Oral bioavailability in Beagle dog at 3 mg/kg by LC-MS/MS analysis; type: ADME, organism-based, Canis lupus familiaris; conditions: in vivo

Neuronal acetylcholine receptor; alpha3/beta4, sequence (P30926 whole entry): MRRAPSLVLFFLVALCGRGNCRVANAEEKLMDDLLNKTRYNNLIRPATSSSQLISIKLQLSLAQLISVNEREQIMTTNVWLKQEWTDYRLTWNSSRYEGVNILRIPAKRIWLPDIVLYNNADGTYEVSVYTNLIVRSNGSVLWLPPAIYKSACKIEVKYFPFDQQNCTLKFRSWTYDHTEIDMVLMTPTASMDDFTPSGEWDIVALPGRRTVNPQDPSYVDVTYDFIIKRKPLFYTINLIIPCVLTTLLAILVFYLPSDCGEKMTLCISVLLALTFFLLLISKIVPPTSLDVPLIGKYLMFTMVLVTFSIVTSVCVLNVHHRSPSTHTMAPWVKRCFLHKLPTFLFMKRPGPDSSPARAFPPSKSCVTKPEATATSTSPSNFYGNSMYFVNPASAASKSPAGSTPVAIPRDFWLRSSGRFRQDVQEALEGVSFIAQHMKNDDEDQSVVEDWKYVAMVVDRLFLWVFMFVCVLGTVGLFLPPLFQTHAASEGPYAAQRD
Neuronal acetylcholine receptor; alpha3/beta4, sequence (P32297 whole entry): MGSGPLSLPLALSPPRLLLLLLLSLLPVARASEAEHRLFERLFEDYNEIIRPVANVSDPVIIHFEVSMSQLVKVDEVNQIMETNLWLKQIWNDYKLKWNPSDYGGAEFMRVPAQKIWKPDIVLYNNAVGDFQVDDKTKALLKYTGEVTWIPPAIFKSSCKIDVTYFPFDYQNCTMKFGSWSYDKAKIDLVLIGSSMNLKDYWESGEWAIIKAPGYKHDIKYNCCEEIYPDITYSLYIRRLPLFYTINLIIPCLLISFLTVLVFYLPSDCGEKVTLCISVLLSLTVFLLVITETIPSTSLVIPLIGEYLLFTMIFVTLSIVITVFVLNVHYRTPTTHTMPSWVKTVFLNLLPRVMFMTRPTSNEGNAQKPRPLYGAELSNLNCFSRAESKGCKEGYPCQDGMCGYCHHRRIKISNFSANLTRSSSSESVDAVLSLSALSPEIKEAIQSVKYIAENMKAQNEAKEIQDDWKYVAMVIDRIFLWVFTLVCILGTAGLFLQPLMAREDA
Cytochrome P450 3A4, sequence (P08684 whole entry): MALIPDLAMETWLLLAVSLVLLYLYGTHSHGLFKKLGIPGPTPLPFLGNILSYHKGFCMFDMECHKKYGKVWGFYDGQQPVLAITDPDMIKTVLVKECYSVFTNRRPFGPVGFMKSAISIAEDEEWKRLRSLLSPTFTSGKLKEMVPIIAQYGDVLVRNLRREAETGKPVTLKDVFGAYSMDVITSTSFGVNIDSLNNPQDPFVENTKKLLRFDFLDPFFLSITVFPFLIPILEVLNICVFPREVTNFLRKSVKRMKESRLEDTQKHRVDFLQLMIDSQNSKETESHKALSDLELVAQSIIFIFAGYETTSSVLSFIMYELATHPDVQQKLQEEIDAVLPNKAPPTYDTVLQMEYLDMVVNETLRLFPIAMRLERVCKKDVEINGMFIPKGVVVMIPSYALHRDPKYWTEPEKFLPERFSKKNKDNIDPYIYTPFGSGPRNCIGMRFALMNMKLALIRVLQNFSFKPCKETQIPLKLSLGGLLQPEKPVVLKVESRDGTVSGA
Neuronal acetylcholine receptor; alpha4/beta2, sequence (P17787 whole entry): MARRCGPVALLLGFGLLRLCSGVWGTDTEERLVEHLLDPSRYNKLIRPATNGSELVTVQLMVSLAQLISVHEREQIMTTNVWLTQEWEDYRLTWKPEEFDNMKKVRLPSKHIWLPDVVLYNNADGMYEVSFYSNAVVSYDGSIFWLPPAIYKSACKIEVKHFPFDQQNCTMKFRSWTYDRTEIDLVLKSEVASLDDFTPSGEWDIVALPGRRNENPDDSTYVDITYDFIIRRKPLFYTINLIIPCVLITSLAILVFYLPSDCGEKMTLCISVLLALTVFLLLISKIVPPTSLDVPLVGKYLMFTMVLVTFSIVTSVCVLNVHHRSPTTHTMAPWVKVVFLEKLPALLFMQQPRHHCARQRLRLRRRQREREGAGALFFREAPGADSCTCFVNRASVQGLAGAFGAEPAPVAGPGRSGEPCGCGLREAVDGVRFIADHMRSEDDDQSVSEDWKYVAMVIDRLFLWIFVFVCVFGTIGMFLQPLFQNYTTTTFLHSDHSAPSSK
Neuronal acetylcholine receptor; alpha4/beta2, sequence (P43681 whole entry): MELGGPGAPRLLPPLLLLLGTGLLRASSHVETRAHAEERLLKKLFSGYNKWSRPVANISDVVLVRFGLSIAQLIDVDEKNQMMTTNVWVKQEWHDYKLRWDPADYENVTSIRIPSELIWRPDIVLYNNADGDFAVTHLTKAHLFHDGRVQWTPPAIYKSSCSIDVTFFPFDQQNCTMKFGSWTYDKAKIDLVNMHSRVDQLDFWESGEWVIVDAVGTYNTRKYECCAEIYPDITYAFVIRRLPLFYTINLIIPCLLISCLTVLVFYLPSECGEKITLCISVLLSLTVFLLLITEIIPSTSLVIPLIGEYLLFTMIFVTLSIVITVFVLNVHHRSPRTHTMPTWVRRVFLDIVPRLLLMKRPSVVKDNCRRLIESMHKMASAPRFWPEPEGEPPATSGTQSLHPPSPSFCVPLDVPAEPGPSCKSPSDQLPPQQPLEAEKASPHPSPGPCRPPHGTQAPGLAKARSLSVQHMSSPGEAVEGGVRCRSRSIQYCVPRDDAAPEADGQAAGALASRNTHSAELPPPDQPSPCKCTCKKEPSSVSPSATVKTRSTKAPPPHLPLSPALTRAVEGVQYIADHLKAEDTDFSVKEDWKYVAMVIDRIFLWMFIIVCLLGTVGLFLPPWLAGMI

With Cl.Clc1ccc(OC[C@@H]2C[C@H]3C[C@H]3N2)cn1 the Activity [1] was “Non-Toxic”, the Cmax [2] was 1910 ng/mL and the Activity [3] was “Non-Toxic”. The fraction unbound at 6 h [4] was 0.31, the AUC(0-t) [5] was 4350 ng·h/mL and the fraction unbound at 6 h [6] was 0.21. The Activity (Rattus norvegicus [7]) was 29.35%, the pKi [8] was < 5.00 and the Activity [9] was “Non-Toxic”. For the same molecule, the Activity (Bone marrow cell) was “Non-Toxic”, the pIC50 (Cytochrome P450 3A4) was < 4.35 and the “inhibition (INH)” value [10] was “Not Active”. The Activity (Rattus norvegicus [11]) was 66.4%, the bioavailability [12] was 66% and the “inhibition (INH)” value [13] was “Not Active”. For the same molecule, the pIC50 [14] was 5.14, the Activity [15] was “Non-Toxic” and the “inhibition (INH)” value [16] was “Not Active”. It also gave a bioavailability [17] of 83%.

Reference: ChEMBL document CHEMBL4602676, “Discovery and Development of 3-(6-Chloropyridine-3-yloxymethyl)-2-azabicyclo[3.1.0]hexane Hydrochloride (SUVN-911): A Novel, Potent, Selective, and Orally Active Neuronal Nicotinic Acetylcholine α4β2 Receptor Antagonist for the Treatment of Depression” (J Med Chem, 2020)
